2 compounds from patent publication US20080051598A1, “Process for Production of Polysubstituted Cyclobutanes and Polysubstituted Cyclobutenes” (priority 2004, published 2008) can be followed below.

For test [1], the system named is cultured Plasmodium falciparum. Description: growth inhibition of malaria parasites. The settings on record: read-out: concentration at which growth of cultured Plasmodium falciparum was 50% inhibited. Format: cell-based. The method, then:
An evaluation was conducted of growth inhibition of malaria parasites by a compound 9 derived by chemical conversion of cyclobutane compound 8 synthesized according to the present invention. As a result, the growth of cultured Plasmodium falciparum was 50% inhibited by a low concentration of 1 μM of compound 9. [drawing 60]

The subject of test [2] is colon cancer cells (HCT116). Briefly: anti-tumor effects, growth of colon cancer cells. The test is classed as cell-based. The settings on record: concentration 25 μg/mL. The method, then:
An evaluation was conducted of the anti-tumor effects of a compound 11 derived by chemical conversion of cyclobutane compound 10 synthesized according to the present invention. As a result, the growth of colon cancer cells (HCT116) was inhibited by a low concentration of 25 μg/mL of compound 11. [drawing 61]

As for `OC[C@H]1C2CCC[C@@]23CCC[C@@]13O` (some centres unmarked) [compound 9], the IC50 in test [1] stood at 1000 nM.

`CC(=O)OC12CCC1(C)C1CC(C)(C)CC2C=C1C` (centres unmarked) [compound 11]: the “growth of colon cancer cells (HCT116)” value in test [2] is given as “inhibited”.
